From PubChem BioAssay (NCI)
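Assay format: 96-well plates, 48-hour exposure. GI50 is the concentration that inhibits growth by half. TGI is the concentration that stops growth completely.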

How the values were obtained:
Assay in all cases: growth of human tumour cells (NCI), 48 h
[1] = tested on: LOX IMVI melanoma
[2] = tested on: OVCAR-3 ovarian
[3] = tested on: HCC-2998 colon
[4] = tested on: K-562 leukemia
[5] = tested on: RXF 393 renal
[6] = tested on: IGROV1 ovarian
[7] = tested on: HOP-92 NSCLC
[8] = tested on: A498 renal
[9] = tested on: NCI-H460 lung
[10] = tested on: SW-620 colon
[11] = tested on: RPMI-8226 leukemia
[12] = tested on: NCI-H226 lung
[13] = tested on: SK-MEL-5 melanoma
[14] = tested on: HOP-62 NSCLC
[15] = tested on: MALME-3M melanoma
[16] = tested on: COLO 205 colon
[17] = tested on: NCI-H23 lung
[18] = tested on: HCT-15 colon
[19] = tested on: OVCAR-4 ovarian
[20] = tested on: HL-60(TB) leukemia
[21] = tested on: SNB-75 CNS
[22] = tested on: KM12 colon
[23] = tested on: HCT-116 colon
[24] = tested on: SR leukemia
[25] = tested on: MCF7 breast
[26] = tested on: HS 578T breast
[27] = tested on: TK-10 renal
[28] = tested on: HT29 colon
[29] = tested on: T-47D breast
[30] = tested on: CAKI-1 renal
[31] = tested on: MDA-MB-231 breast
[32] = tested on: SK-OV-3 ovarian
[33] = tested on: PC-3 prostate
[34] = tested on: U251 CNS
[35] = tested on: 786-0 renal
[36] = tested on: SK-MEL-28 melanoma
[37] = tested on: SK-MEL-2 melanoma
[38] = tested on: UACC-62 melanoma
[39] = tested on: ACHN renal
[40] = tested on: NCI/ADR-RES ovarian
[41] = tested on: SN12C renal
[42] = tested on: SF-268 CNS
[43] = tested on: MOLT-4 leukemia
[44] = tested on: OVCAR-8 ovarian
[45] = tested on: M14 melanoma
[46] = tested on: UO-31 renal
[47] = tested on: SNB-19 CNS
[48] = tested on: UACC-257 melanoma
[49] = tested on: SF-539 CNS
[50] = tested on: BT-549 breast
[51] = tested on: CCRF-CEM leukemia
[52] = tested on: DU-145 prostate
[53] = tested on: SF-295 CNS
[54] = tested on: A549 NSCLC
[55] = tested on: MDA-MB-435
[56] = tested on: NCI-H522 lung
[57] = tested on: OVCAR-5 ovarian

Nc1c(C(=O)c2cccc(C#CCN3CCCCC3)c2)cnn1-c1ccc(F)cc1
GI50 [1]: > 25 µM | TGI [1]: > 25 µM | GI50 [2]: > 25 µM | TGI [2]: > 25 µM | GI50 [3]: > 25 µM | TGI [3]: > 25 µM | GI50 [4]: 13.1 µM | TGI [4]: > 25 µM | GI50 [5]: 14 µM | TGI [5]: > 25 µM | GI50 [6]: > 25 µM | TGI [6]: > 25 µM | GI50 [7]: 10.3 µM | TGI [7]: > 25 µM | GI50 [8]: > 25 µM | TGI [8]: > 25 µM | GI50 [9]: > 25 µM | TGI [9]: > 25 µM | GI50 [10]: > 25 µM | TGI [10]: > 25 µM | GI50 [11]: > 17 µM | TGI [11]: > 25 µM | GI50 [12]: > 23.4 µM | TGI [12]: > 25 µM | GI50 [13]: 9.59 µM | TGI [13]: > 25 µM | GI50 [14]: > 25 µM | TGI [14]: > 25 µM | GI50 [15]: > 25 µM | TGI [15]: > 25 µM | GI50 [16]: 24.9 µM | TGI [16]: > 25 µM | GI50 [17]: > 22.5 µM | TGI [17]: > 25 µM | GI50 [18]: > 22.5 µM | TGI [18]: > 25 µM | GI50 [19]: > 22.6 µM | TGI [19]: > 25 µM | GI50 [20]: 15.9 µM | TGI [20]: > 25 µM | GI50 [21]: > 25 µM | TGI [21]: > 25 µM | GI50 [22]: 18.7 µM | TGI [22]: > 25 µM | GI50 [23]: > 17.7 µM | TGI [23]: > 25 µM | GI50 [24]: 14.2 µM | TGI [24]: > 25 µM | GI50 [25]: 19.1 µM | TGI [25]: > 25 µM | GI50 [26]: > 25 µM | TGI [26]: > 25 µM | GI50 [27]: > 25 µM | TGI [27]: > 25 µM | GI50 [28]: > 17.7 µM | TGI [28]: > 25 µM | GI50 [29]: 11.3 µM | TGI [29]: > 25 µM | GI50 [30]: > 25 µM | TGI [30]: > 25 µM | GI50 [31]: > 25 µM | TGI [31]: > 25 µM | GI50 [32]: > 25 µM | TGI [32]: > 25 µM | GI50 [33]: > 25 µM | TGI [33]: > 25 µM | GI50 [34]: > 25 µM | TGI [34]: > 25 µM | GI50 [35]: > 25 µM | TGI [35]: > 25 µM | GI50 [36]: > 25 µM | TGI [36]: > 25 µM | GI50 [37]: > 25 µM | TGI [37]: > 25 µM | GI50 [38]: > 25 µM | TGI [38]: > 25 µM | GI50 [39]: > 19.2 µM | TGI [39]: > 25 µM | GI50 [40]: > 19.9 µM | TGI [40]: > 25 µM | GI50 [41]: 24.4 µM | TGI [41]: > 25 µM | GI50 [42]: > 25 µM | TGI [42]: > 25 µM | GI50 [43]: 21.2 µM | TGI [43]: > 25 µM | GI50 [44]: > 25 µM | TGI [44]: > 25 µM | GI50 [45]: > 25 µM | TGI [45]: > 25 µM | GI50 [46]: 16.2 µM | TGI [46]: > 25 µM | GI50 [47]: > 25 µM | TGI [47]: > 25 µM | GI50 [48]: > 24.1 µM | TGI [48]: > 25 µM | GI50 [49]: > 25 µM | TGI [49]: > 25 µM | GI50 [50]: > 13.3 µM | TGI [50]: > 25 µM | GI50 [51]: > 25 µM | TGI [51]: > 25 µM | GI50 [52]: > 25 µM | TGI [52]: > 25 µM | GI50 [53]: > 25 µM | TGI [53]: > 25 µM | GI50 [54]: > 25 µM | TGI [54]: > 25 µM | GI50 [55]: 15.3 µM | TGI [55]: > 25 µM | GI50 [56]: > 18.9 µM | TGI [56]: > 25 µM | GI50 [57]: > 25 µM | TGI [57]: > 25 µM
